Assay results: article PMC4876928 (Clinical cancer research : an official journal of the …, 2016)

Experiment: Phase I safety and tolerability: DLTs, MTD, adverse events
Format: in vivo, human
[1] = All patients in study (n=120), G3
[2] = All patients in study (n=120), ≤G2
[3] = All patients in study (n=120), ≥G4

Cc1c(CN2CCN(C(=O)[C@H](C)O)CC2)sc2c(N3CCOCC3)nc(-c3cnc(N)nc3)nc12 [apitolisib]
Decreased appetite, treatment related AE, n (%) (30mg 28/28d (n=27), G3): 0
Diarrhea, treatment related AE, n (%) (30mg 28/28d (n=27), G3): 2 (7%)
Dry skin, treatment related AE, n (%) (30mg 28/28d (n=27), G3): 0
Fatigue, treatment related AE, n (%) (30mg 28/28d (n=27), G3): 4 (15%)
Hyperglycemia, treatment related AE, n (%) (30mg 28/28d (n=27), G3): 1 (4%)
Liver dysfunction (abnormal LFTs), treatment related AE, n (%) (30mg 28/28d (n=27), G3): 1 (4%)
Mucosal inflammation, treatment related AE, n (%) (30mg 28/28d (n=27), G3): 0
Nausea, treatment related AE, n (%) (30mg 28/28d (n=27), G3): 1 (4%)
Patients with any AE related to apitolisib, n (%) (30mg 28/28d (n=27), G3): 14 (52%)
Pneumonitis, treatment related AE, n (%) (30mg 28/28d (n=27), G3): 1 (4%)
Pruritus, treatment related AE, n (%) (30mg 28/28d (n=27), G3): 0
Rash (maculopapular, pruritic, macular, erythematous, generalized), treatment related AE, n (%) (30mg 28/28d (n=27), G3): 5 (19%)
Vomiting, treatment related AE, n (%) (30mg 28/28d (n=27), G3): 0
Decreased appetite, treatment related AE, n (%) (30mg 28/28d (n=27), ≤G2): 13 (48%)
Diarrhea, treatment related AE, n (%) (30mg 28/28d (n=27), ≤G2): 16 (59%)
Dry skin, treatment related AE, n (%) (30mg 28/28d (n=27), ≤G2): 7 (26%)
Fatigue, treatment related AE, n (%) (30mg 28/28d (n=27), ≤G2): 15 (56%)
Hyperglycemia, treatment related AE, n (%) (30mg 28/28d (n=27), ≤G2): 0
Liver dysfunction (abnormal LFTs), treatment related AE, n (%) (30mg 28/28d (n=27), ≤G2): 1 (4%)
Mucosal inflammation, treatment related AE, n (%) (30mg 28/28d (n=27), ≤G2): 3 (11%)
Nausea, treatment related AE, n (%) (30mg 28/28d (n=27), ≤G2): 11 (41%)
Patients with any AE related to apitolisib, n (%) (30mg 28/28d (n=27), ≤G2): 12 (44%)
Pneumonitis, treatment related AE, n (%) (30mg 28/28d (n=27), ≤G2): 3 (11%)
Pruritus, treatment related AE, n (%) (30mg 28/28d (n=27), ≤G2): 2 (7%)
Rash (maculopapular, pruritic, macular, erythematous, generalized), treatment related AE, n (%) (30mg 28/28d (n=27), ≤G2): 12 (44%)
Vomiting, treatment related AE, n (%) (30mg 28/28d (n=27), ≤G2): 5 (19%)
Decreased appetite, treatment related AE, n (%) (30mg 28/28d (n=27), ≥G4): 0
Diarrhea, treatment related AE, n (%) (30mg 28/28d (n=27), ≥G4): 0
Dry skin, treatment related AE, n (%) (30mg 28/28d (n=27), ≥G4): 0
Fatigue, treatment related AE, n (%) (30mg 28/28d (n=27), ≥G4): 0
Hyperglycemia, treatment related AE, n (%) (30mg 28/28d (n=27), ≥G4): 1 (4%)
Liver dysfunction (abnormal LFTs), treatment related AE, n (%) (30mg 28/28d (n=27), ≥G4): 0
Mucosal inflammation, treatment related AE, n (%) (30mg 28/28d (n=27), ≥G4): 0
Nausea, treatment related AE, n (%) (30mg 28/28d (n=27), ≥G4): 0
Patients with any AE related to apitolisib, n (%) (30mg 28/28d (n=27), ≥G4): 1 (4%)
Pneumonitis, treatment related AE, n (%) (30mg 28/28d (n=27), ≥G4): 0
Pruritus, treatment related AE, n (%) (30mg 28/28d (n=27), ≥G4): 0
Rash (maculopapular, pruritic, macular, erythematous, generalized), treatment related AE, n (%) (30mg 28/28d (n=27), ≥G4): 0
Vomiting, treatment related AE, n (%) (30mg 28/28d (n=27), ≥G4): 0
DLTs, Description (40 mg 21/28 d, stage 1): G4 fasting hyperglycemia
Decreased appetite, treatment related AE, n (%) (40mg 28/28d (n=51), G3): 0
Diarrhea, treatment related AE, n (%) (40mg 28/28d (n=51), G3): 5 (10%)
Dry skin, treatment related AE, n (%) (40mg 28/28d (n=51), G3): 1 (2%)
Fatigue, treatment related AE, n (%) (40mg 28/28d (n=51), G3): 2 (4%)
Hyperglycemia, treatment related AE, n (%) (40mg 28/28d (n=51), G3): 9 (18%)
Liver dysfunction (abnormal LFTs), treatment related AE, n (%) (40mg 28/28d (n=51), G3): 6 (12%)
Mucosal inflammation, treatment related AE, n (%) (40mg 28/28d (n=51), G3): 3 (6%)
Nausea, treatment related AE, n (%) (40mg 28/28d (n=51), G3): 1 (2%)
Patients with any AE related to apitolisib, n (%) (40mg 28/28d (n=51), G3): 26 (51%)
Pneumonitis, treatment related AE, n (%) (40mg 28/28d (n=51), G3): 2 (4%)
Pruritus, treatment related AE, n (%) (40mg 28/28d (n=51), G3): 1 (2%)
Rash (maculopapular, pruritic, macular, erythematous, generalized), treatment related AE, n (%) (40mg 28/28d (n=51), G3): 7 (14%)
Vomiting, treatment related AE, n (%) (40mg 28/28d (n=51), G3): 1 (2%)
Decreased appetite, treatment related AE, n (%) (40mg 28/28d (n=51), ≤G2): 11 (22%)
Diarrhea, treatment related AE, n (%) (40mg 28/28d (n=51), ≤G2): 23 (45%)
Dry skin, treatment related AE, n (%) (40mg 28/28d (n=51), ≤G2): 7 (14%)
Fatigue, treatment related AE, n (%) (40mg 28/28d (n=51), ≤G2): 34 (67%)
Hyperglycemia, treatment related AE, n (%) (40mg 28/28d (n=51), ≤G2): 5 (10%)
Liver dysfunction (abnormal LFTs), treatment related AE, n (%) (40mg 28/28d (n=51), ≤G2): 2 (4%)
Mucosal inflammation, treatment related AE, n (%) (40mg 28/28d (n=51), ≤G2): 15 (29%)
Nausea, treatment related AE, n (%) (40mg 28/28d (n=51), ≤G2): 22 (43%)
Patients with any AE related to apitolisib, n (%) (40mg 28/28d (n=51), ≤G2): 20 (39%)
Pneumonitis, treatment related AE, n (%) (40mg 28/28d (n=51), ≤G2): 1 (2%)
Pruritus, treatment related AE, n (%) (40mg 28/28d (n=51), ≤G2): 13 (25%)
Rash (maculopapular, pruritic, macular, erythematous, generalized), treatment related AE, n (%) (40mg 28/28d (n=51), ≤G2): 20 (39%)
Vomiting, treatment related AE, n (%) (40mg 28/28d (n=51), ≤G2): 10 (20%)
Decreased appetite, treatment related AE, n (%) (40mg 28/28d (n=51), ≥G4): 0
Diarrhea, treatment related AE, n (%) (40mg 28/28d (n=51), ≥G4): 0
Dry skin, treatment related AE, n (%) (40mg 28/28d (n=51), ≥G4): 0
Fatigue, treatment related AE, n (%) (40mg 28/28d (n=51), ≥G4): 0
Hyperglycemia, treatment related AE, n (%) (40mg 28/28d (n=51), ≥G4): 0
Liver dysfunction (abnormal LFTs), treatment related AE, n (%) (40mg 28/28d (n=51), ≥G4): 0
Mucosal inflammation, treatment related AE, n (%) (40mg 28/28d (n=51), ≥G4): 0
Nausea, treatment related AE, n (%) (40mg 28/28d (n=51), ≥G4): 0
Patients with any AE related to apitolisib, n (%) (40mg 28/28d (n=51), ≥G4): 5 (10%)
Pneumonitis, treatment related AE, n (%) (40mg 28/28d (n=51), ≥G4): 2 (4%)
Pruritus, treatment related AE, n (%) (40mg 28/28d (n=51), ≥G4): 0
Rash (maculopapular, pruritic, macular, erythematous, generalized), treatment related AE, n (%) (40mg 28/28d (n=51), ≥G4): 0
Vomiting, treatment related AE, n (%) (40mg 28/28d (n=51), ≥G4): 0
DLTs, Description (70 mg 21/28 d, stage 1): G3 maculopapular rash and G3 fasting hyperglycemia
treatment related deaths on study (1 at 50 mg QD 21/28, 3 at 40 mg QD 28/28): 4
patients requiring treatment discontinuation for rash (4 patients in stage 2 (2 at 40 mg and 2 at 30 mg QD)): 5.1%
DLTs, Description (All doses, stage 1): Hyperglycemia (n=2) Rash
Decreased appetite, treatment related AE, n (%) [1]: 0
Diarrhea, treatment related AE, n (%) [1]: 11 (9%)
Dry skin, treatment related AE, n (%) [1]: 1 (1%)
Fatigue, treatment related AE, n (%) [1]: 7 (6%)
Hyperglycemia, treatment related AE, n (%) [1]: 18 (15%)
Liver dysfunction (abnormal LFTs), treatment related AE, n (%) [1]: 9 (8%)
Mucosal inflammation, treatment related AE, n (%) [1]: 4 (3%)
Nausea, treatment related AE, n (%) [1]: 2 (2%)
Patients with any AE related to apitolisib, n (%) [1]: 51 (42%)
Pneumonitis, treatment related AE, n (%) [1]: 4 (3%)
Pruritus, treatment related AE, n (%) [1]: 1 (1%)
Rash (maculopapular, pruritic, macular, erythematous, generalized), treatment related AE, n (%) [1]: 14 (12%)
Vomiting, treatment related AE, n (%) [1]: 1 (1%)
Decreased appetite, treatment related AE, n (%) [2]: 42 (35%)
Diarrhea, treatment related AE, n (%) [2]: 60 (50%)
Dry skin, treatment related AE, n (%) [2]: 16 (13%)
Fatigue, treatment related AE, n (%) [2]: 73 (61%)
Hyperglycemia, treatment related AE, n (%) [2]: 9 (8%)
Liver dysfunction (abnormal LFTs), treatment related AE, n (%) [2]: 4 (3%)
Mucosal inflammation, treatment related AE, n (%) [2]: 27 (23%)
Nausea, treatment related AE, n (%) [2]: 48 (40%)
Patients with any AE related to apitolisib, n (%) [2]: 60 (50%)
Pneumonitis, treatment related AE, n (%) [2]: 8 (7%)
Pruritus, treatment related AE, n (%) [2]: 22 (18%)
Rash (maculopapular, pruritic, macular, erythematous, generalized), treatment related AE, n (%) [2]: 47 (39%)
Vomiting, treatment related AE, n (%) [2]: 24 (20%)
Decreased appetite, treatment related AE, n (%) [3]: 0
Diarrhea, treatment related AE, n (%) [3]: 0
Dry skin, treatment related AE, n (%) [3]: 0
Fatigue, treatment related AE, n (%) [3]: 0
Hyperglycemia, treatment related AE, n (%) [3]: 2 (2%)
Liver dysfunction (abnormal LFTs), treatment related AE, n (%) [3]: 0
Mucosal inflammation, treatment related AE, n (%) [3]: 0
Nausea, treatment related AE, n (%) [3]: 0
Patients with any AE related to apitolisib, n (%) [3]: 8 (7%)
Pneumonitis, treatment related AE, n (%) [3]: 2 (2%)
Pruritus, treatment related AE, n (%) [3]: 0
Rash (maculopapular, pruritic, macular, erythematous, generalized), treatment related AE, n (%) [3]: 0
Vomiting, treatment related AE, n (%) [3]: 0
maximum tolerated dose (MTD) (QD, 21/28-day schedule, DLT <33.3%): 50 mg
recommended phase 2 dose (RP2D) (QD, 28/28-day schedule, except MPM patients): 40 mg
recommended dose for MPM (QD, 28/28 schedule, malignant pleural mesothelioma patients): 30 mg
maximum administered dose (MAD) (QD, continuous 28/28 schedule): 50 mg
diarrhea, treatment related ≥G3 (RP2D 40 mg QD): 10%
fatigue, treatment related ≥G3 (RP2D 40 mg QD): 4%
hyperglycemia, treatment related ≥G3 (RP2D 40 mg QD): 18%
liver dysfunction, treatment related ≥G3 (RP2D 40 mg QD): 12%
mucosal inflammation, treatment related ≥G3 (RP2D 40 mg QD): 6%
pneumonitis, treatment related ≥G3 (RP2D 40 mg QD): 8%
rash, treatment related ≥G3 (RP2D 40 mg QD): 14%
pneumonitis cases reported on study (all patients, six severe): 14
MTD (continuous 28/28 schedule): not reached
dose reductions due to diarrhea (human, in vivo, oral): 2 n
dose reductions due to mucosal inflammation (human, in vivo, oral): 2 n
dose reductions due to pneumonitis (human, in vivo, oral): 2 n
rate of severe pneumonitis (grade ≥3) (in vivo): 8%
patients with pneumonitis outside the DLT window (stage 1, including 3 severe cases): 8 patients
